Data as given in patent US11000033B2, “Ketone or oxime compound, and herbicide” (NISSAN CHEMICAL CORPORATION, priority 2014, dated 2021).

How the values were obtained:
Type in all cases: in vivo
[1] = tested on: Cyperus difformis; assay: Test Example 3: herbicidal effect by foliage application, Wagner pot (symbol E); details: application herbicide amount 320 g/ha
Method in brief: (§1)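 Alluvial soil was flooded to a depth of 0.1–0.5 cm, seeded with the weeds and rice, and kept in a greenhouse at 25–30 °C. After 14 days of growth, the foliage received a small-sprayer application of emulsion diluted to the intended rate; injury was rated at 3 weeks.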

[2] = tested on: rapeseed; assay: Test Example 4: effect on crop by soil treatment (symbol g); details: application herbicide amount 320 g/ha
Method in brief: (§2)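 Crop seed is sown in spots together with several weed species in a box of sterilized diluvial soil. It is covered by about 1.5 cm of soil and kept in a greenhouse held between 25° C. and 30° C.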

[3] = tested on: Stellaria media; assay: Test Example 5: herbicidal effect by foliage application, plastic box (symbol P); details: 320 g/ha, 3 weeks after application
Method in brief: (§3)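 Greenhouse foliar test: seedlings at 14 days, grown 25° C. to 30° C. in sterilized diluvial soil; compound applied as an aqueous dilution of an emulsion; response read 3 weeks after spraying.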

[4] = tested on: Alopecurus myosuroides; assay: Test Example 5: herbicidal effect by foliage application, plastic box (symbol J); details: 320 g/ha, 3 weeks after application
Method in brief: as §3

[5] = tested on: Scirpus juncoides; assay: Test Example 1: herbicidal activity, application before weed generation in submerged conditions (symbol B); details: application herbicide amount 320 g/ha
Method in brief: (§4)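 Pre-emergence, paddy conditions: emulsifiable formulation diluted in water, dosed onto floodwater (4 cm depth) on sowing day. Alluvial soil; weeds sown mixed; rice transplanted at 2.5-leaf stage. Greenhouse 25–30 °C, 3 wk. Score 0–5 (5 = ≥90% kill, 0 = ≤5%).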

[6] = tested on: wheat; assay: Test Example 4: effect on crop by soil treatment (symbol e); details: application herbicide amount 320 g/ha
Method in brief: as §2

[7] = tested on: Echinochloa oryzacola Vasing.; assay: Test Example 1: herbicidal activity, application before weed generation in submerged conditions (symbol A); details: application herbicide amount 320 g/ha
Method in brief: as §4

[8] = tested on: rapeseed; assay: Test Example 5: effect on crop by foliage application, plastic box (symbol g); details: 320 g/ha, 3 weeks after application
Method in brief: (§5)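 Crop seed is sown alongside grass and broadleaf weed species in spots in sterilized diluvial soil, then covered to a depth of about 1.5 cm. Plants grow in a greenhouse kept at 25° C. to 30° C.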

[9] = tested on: Setaria viridis; assay: Test Example 4: herbicidal effect by soil treatment (symbol G); details: application herbicide amount 320 g/ha
Method in brief: (§6)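 Seeds were sown in sterilized diluvial soil, covered with about 1.5 cm of soil, and the soil surface was sprayed with a water-diluted emulsion of the compound at a predetermined rate. Plants grew in a greenhouse at 25° C. to 30° C.; effects were scored visually 3 weeks after application.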

[10] = tested on: Echinochloa crus-galli var. crus-galli; assay: Test Example 3: herbicidal effect by foliage application, Wagner pot (symbol H); details: application herbicide amount 320 g/ha
Method in brief: as §1

[11] = tested on: Alopecurus myosuroides; assay: Test Example 4: herbicidal effect by soil treatment (symbol J); details: application herbicide amount 320 g/ha
Method in brief: as §6

[12] = tested on: Apera spica-venti; assay: Test Example 5: herbicidal effect by foliage application, plastic box (symbol L); details: 320 g/ha, 3 weeks after application
Method in brief: as §3

[13] = tested on: Galium spurium; assay: Test Example 4: herbicidal effect by soil treatment (symbol Q); details: application herbicide amount 320 g/ha
Method in brief: as §6

[14] = tested on: beet; assay: Test Example 5: effect on crop by foliage application, plastic box (symbol f); details: 320 g/ha, 3 weeks after application
Method in brief: as §5

[15] = tested on: Galium spurium; assay: Test Example 5: herbicidal effect by foliage application, plastic box (symbol Q); details: 320 g/ha, 3 weeks after application
Method in brief: as §3

COc1cc(Br)cc(F)c1C1=C(O)CC(CC(C)=O)C1=O (stereo not drawn) [7-029]
E herbicidal effect grade ([1]; Table 24): 0 (Herbicidal ratio of 5% or lower (almost no effect)) | Effect on crop grade, g: rapeseed [2]: 0 (Herbicidal ratio of 5% or lower (almost no effect)) | P: Stellaria media, herbicidal effect (criteria of Test Example 1) [3]: 0 (Herbicidal ratio of 5% or lower (almost no effect)) | J: Alopecurus myosuroides, herbicidal effect (criteria of Test Example 1) [4]: 3 (Herbicidal ratio of 40% or higher and lower than 70%) | Herbicidal effect grade, B: Scirpus juncoides [5]: 0 (Herbicidal ratio of 5% or lower (almost no effect)) | Effect on crop grade, e: wheat [6]: 0 (Herbicidal ratio of 5% or lower (almost no effect)) | Herbicidal effect grade, A: Echinochloa oryzacola Vasing. [7]: 2 (Herbicidal ratio of 20% or higher and lower than 40%) | g: rapeseed, effect on crop (criteria of Test Example 1) [8]: 1 (Herbicidal ratio of 5% or higher and lower than 20%) | Herbicidal effect grade, G: Setaria viridis [9]: 4 (Herbicidal ratio of 70% or higher and lower than 90%) | H (Echinochloa crus-galli var. crus-galli) herbicidal effect grade ([10]; Table 24): 3 (Herbicidal ratio of 40% or higher and lower than 70%) | Herbicidal effect grade, J: Alopecurus myosuroides [11]: 1 (Herbicidal ratio of 5% or higher and lower than 20%) | L: Apera spica-venti, herbicidal effect (criteria of Test Example 1) [12]: 3 (Herbicidal ratio of 40% or higher and lower than 70%) | Herbicidal effect grade, Q: Galium spurium [13]: 0 (Herbicidal ratio of 5% or lower (almost no effect)) | f: beet, effect on crop (criteria of Test Example 1) [14]: 0 (Herbicidal ratio of 5% or lower (almost no effect)) | Q: Galium spurium, herbicidal effect (criteria of Test Example 1) [15]: 0 (Herbicidal ratio of 5% or lower (almost no effect))

CON=C(C)CC1CC(OC(=O)N2CCOCC2)=C(c2c(C)cc(-c3ccc(Cl)cc3F)cc2C)C1=O (stereo not drawn) [6-089]
herbicidal effect on E, grade 0-5 [1]: 4 (Herbicidal ratio of 70% or higher and lower than 90%) | Effect on crop grade, g: rapeseed [2]: 0 (Herbicidal ratio of 5% or lower (almost no effect)) | P: Stellaria media, herbicidal effect (criteria of Test Example 1) [3]: 4 (Herbicidal ratio of 70% or higher and lower than 90%) | J: Alopecurus myosuroides, herbicidal effect (criteria of Test Example 1) [4]: 5 (Herbicidal ratio of 90% or more (almost completely withered)) | Herbicidal effect grade, B: Scirpus juncoides [5]: 3 (Herbicidal ratio of 40% or higher and lower than 70%) | Effect on crop grade, e: wheat [6]: 0 (Herbicidal ratio of 5% or lower (almost no effect)) | Herbicidal effect grade, A: Echinochloa oryzacola Vasing. [7]: 5 (Herbicidal ratio of 90% or more (almost completely withered)) | g: rapeseed, effect on crop (criteria of Test Example 1) [8]: 4 (Herbicidal ratio of 70% or higher and lower than 90%) | Herbicidal effect grade, G: Setaria viridis [9]: 4 (Herbicidal ratio of 70% or higher and lower than 90%) | herbicidal effect on H (Echinochloa crus-galli var. crus-galli), grade 0-5 [10]: 5 (Herbicidal ratio of 90% or more (almost completely withered)) | Herbicidal effect grade, J: Alopecurus myosuroides [11]: 2 (Herbicidal ratio of 20% or higher and lower than 40%) | L: Apera spica-venti, herbicidal effect (criteria of Test Example 1) [12]: 5 (Herbicidal ratio of 90% or more (almost completely withered)) | Herbicidal effect grade, Q: Galium spurium [13]: 0 (Herbicidal ratio of 5% or lower (almost no effect)) | f: beet, effect on crop (criteria of Test Example 1) [14]: 0 (Herbicidal ratio of 5% or lower (almost no effect)) | Q: Galium spurium, herbicidal effect (criteria of Test Example 1) [15]: 3 (Herbicidal ratio of 40% or higher and lower than 70%)
